Results taken from PubChem BioAssay AID2060889 (Molecular Pharmacology Branch, DTP, NCI, 2025).
Values belong to the molecule of their own block, whether it stands above or below them.

Test system: LG0567-F671-PDC complex spheroids viability
Test: Anticancer human tumor LG0567-F671-PDC patient-derived lung adenocarcinoma cell line growth inhibition [RAS]
Details: for viability, T/C: stronger effect = lower value
In short: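 Tumour cells grown as complex spheroids with HUVEC endothelial cells and mesenchymal stem cells, treated with RAS pathway inhibitor combinations. Each agent spans half-log steps from near clinical Cmax, or 10 microM where Cmax is unknown.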

[1] = curve of first compound, second compound 0.000949 µM
[2] = curve of first compound, second compound 0.003 µM
[3] = curve of first compound, second compound 0.00949 µM
[4] = curve of first compound, second compound 0.03 µM
[5] = curve of first compound, second compound 0.0949 µM
[6] = curve of first compound, second compound 0.3 µM
[7] = second compound 0.000949 µM, first compound 0.0316 µM
[8] = second compound 0.000949 µM, first compound 0.1 µM
[9] = second compound 0.000949 µM, first compound 0.316 µM
[10] = second compound 0.000949 µM, first compound 1 µM
[11] = second compound 0.003 µM, first compound 0.0316 µM
[12] = second compound 0.003 µM, first compound 0.1 µM
[13] = second compound 0.003 µM, first compound 0.316 µM
[14] = second compound 0.003 µM, first compound 1 µM
[15] = second compound 0.00949 µM, first compound 0.0316 µM
[16] = second compound 0.00949 µM, first compound 0.1 µM
[17] = second compound 0.00949 µM, first compound 0.316 µM
[18] = second compound 0.00949 µM, first compound 1 µM
[19] = second compound 0.03 µM, first compound 0.0316 µM
[20] = second compound 0.03 µM, first compound 0.1 µM
[21] = second compound 0.03 µM, first compound 0.316 µM
[22] = second compound 0.03 µM, first compound 1 µM
[23] = second compound 0.0949 µM, first compound 0.0316 µM
[24] = second compound 0.0949 µM, first compound 0.1 µM
[25] = second compound 0.0949 µM, first compound 0.316 µM
[26] = second compound 0.0949 µM, first compound 1 µM
[27] = second compound 0.3 µM, first compound 0.0316 µM
[28] = second compound 0.3 µM, first compound 0.1 µM
[29] = second compound 0.3 µM, first compound 0.316 µM
[30] = second compound 0.3 µM, first compound 1 µM
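Note: spheroids exposed to compound for seven days before readout.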
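Throughout, for IC50: luminescence signal used as a proxy for viable cells.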

IC50 [1]: < 31.6 nM | IC50 [2]: < 31.6 nM | IC50 [3]: < 31.6 nM | IC50 [4]: < 31.6 nM | IC50 [5]: < 31.6 nM | IC50 [6]: < 31.6 nM
Compound: CC1(O)CCCC1n1c(=O)c(C(F)F)cc2cnc(NC3CCN(S(C)(=O)=O)CC3)nc21 (stereo not drawn) + CCn1c(-c2cccnc2C(C)OC)c2c3cc(ccc31)N1CCOC(CC(NC(=O)C(C(C)C)N(C)C(=O)C3(F)CCN(C(=O)C#CC(C)(C)N(C)C)CC3)C(=O)N3CCCC(N3)C(=O)OCC(C)(C)C2)C1
viability, T/C [7]: 17.6% | viability, T/C [8]: 18.2% | viability, T/C [9]: 18.2% | viability, T/C [10]: 21.6% | viability, T/C (second compound 0.000949 µM, first compound 3.16 µM): 22.6% | viability, T/C (second compound 0.000949 µM, first compound 10 µM): 18% | viability, T/C [11]: 17.6% | viability, T/C [12]: 16.9% | viability, T/C [13]: 18.5% | viability, T/C [14]: 21.3% | viability, T/C (second compound 0.003 µM, first compound 3.16 µM): 24.5% | viability, T/C (second compound 0.003 µM, first compound 10 µM): 16.8% | viability, T/C [15]: 15.8% | viability, T/C [16]: 16.7% | viability, T/C [17]: 20.2% | viability, T/C [18]: 20.4% | viability, T/C (second compound 0.00949 µM, first compound 3.16 µM): 20.7% | viability, T/C (second compound 0.00949 µM, first compound 10 µM): 16.2% | viability, T/C [19]: 14.5% | viability, T/C [20]: 15.2% | viability, T/C [21]: 19.5% | viability, T/C [22]: 19.1% | viability, T/C (second compound 0.03 µM, first compound 3.16 µM): 20.2% | viability, T/C (second compound 0.03 µM, first compound 10 µM): 16.3% | viability, T/C [23]: 13.5% | viability, T/C [24]: 15.5% | viability, T/C [25]: 16.1% | viability, T/C [26]: 17.1% | viability, T/C (second compound 0.0949 µM, first compound 3.16 µM): 18.6% | viability, T/C (second compound 0.0949 µM, first compound 10 µM): 15.6% | viability, T/C [27]: 11.8% | viability, T/C [28]: 12.4% | viability, T/C [29]: 14.1% | viability, T/C [30]: 16.2% | viability, T/C (second compound 0.3 µM, first compound 3.16 µM): 17.4% | viability, T/C (second compound 0.3 µM, first compound 10 µM): 11.8%

IC50 [1]: < 3.16 nM | IC50 [2]: < 3.16 nM | IC50 [3]: < 3.16 nM | IC50 [4]: < 3.16 nM | IC50 [5]: < 3.16 nM | IC50 [6]: < 3.16 nM
Compound: C=CC(=O)Nc1cc(Nc2nccc(-c3cn(C)c4ccccc34)n2)c(OC)cc1N(C)CCN(C)C + CCn1c(-c2cc(N3CCN(C)CC3)cnc2C(C)OC)c2c3cc(ccc31)-c1csc(n1)CC(NC(=O)C1CC1C)C(=O)N1CCCC(N1)C(=O)OCC(C)(C)C2
viability, T/C (second compound 0.000949 µM, first compound 0.00316 µM): 24.1% | viability, T/C (second compound 0.000949 µM, first compound 0.01 µM): 19.9% | viability, T/C [7]: 17.7% | viability, T/C [8]: 11.7% | viability, T/C [9]: 5.93% | viability, T/C [10]: 2.95% | viability, T/C (second compound 0.003 µM, first compound 0.00316 µM): 11.5% | viability, T/C (second compound 0.003 µM, first compound 0.01 µM): 10.2% | viability, T/C [11]: 8.59% | viability, T/C [12]: 4.71% | viability, T/C [13]: 3.14% | viability, T/C [14]: 1.73% | viability, T/C (second compound 0.00949 µM, first compound 0.00316 µM): 6.67% | viability, T/C (second compound 0.00949 µM, first compound 0.01 µM): 6.47% | viability, T/C [15]: 4.89% | viability, T/C [16]: 3.67% | viability, T/C [17]: 1.84% | viability, T/C [18]: 1.07% | viability, T/C (second compound 0.03 µM, first compound 0.00316 µM): 3.85% | viability, T/C (second compound 0.03 µM, first compound 0.01 µM): 3.87% | viability, T/C [19]: 11.8% | viability, T/C [20]: 2.59% | viability, T/C [21]: 1.49% | viability, T/C [22]: 0.76% | viability, T/C (second compound 0.0949 µM, first compound 0.00316 µM): 3.44% | viability, T/C (second compound 0.0949 µM, first compound 0.01 µM): 2.65% | viability, T/C [23]: 2.81% | viability, T/C [24]: 2.03% | viability, T/C [25]: 1.32% | viability, T/C [26]: 0.84% | viability, T/C (second compound 0.3 µM, first compound 0.00316 µM): 2.71% | viability, T/C (second compound 0.3 µM, first compound 0.01 µM): 2.18% | viability, T/C [27]: 2.37% | viability, T/C [28]: 1.85% | viability, T/C [29]: 1.11% | viability, T/C [30]: 0.63%

IC50 (curve of first compound, second compound 0.00316 µM): < 31.6 nM | IC50 (curve of first compound, second compound 0.01 µM): < 31.6 nM | IC50 (curve of first compound, second compound 0.0316 µM): < 31.6 nM | IC50 (curve of first compound, second compound 0.1 µM): < 31.6 nM | IC50 (curve of first compound, second compound 0.316 µM): < 31.6 nM | IC50 (curve of first compound, second compound 1 µM): < 31.6 nM
Compound: CC1(O)CCCC1n1c(=O)c(C(F)F)cc2cnc(NC3CCN(S(C)(=O)=O)CC3)nc21 (stereo not drawn) + C=CC(=O)N1CCN(c2nc(OCC3CCCN3C)nc3c(F)c(-c4nc(N)cc(C)c4C(F)(F)F)c(Cl)cc23)C(C)C1
viability, T/C (second compound 0.00316 µM, first compound 0.0316 µM): 20.1% | viability, T/C (second compound 0.00316 µM, first compound 0.1 µM): 16.5% | viability, T/C (second compound 0.00316 µM, first compound 0.316 µM): 20.5% | viability, T/C (second compound 0.00316 µM, first compound 1 µM): 23.8% | viability, T/C (second compound 0.00316 µM, first compound 3.16 µM): 20.7% | viability, T/C (second compound 0.00316 µM, first compound 10 µM): 14% | viability, T/C (second compound 0.01 µM, first compound 0.0316 µM): 16.5% | viability, T/C (second compound 0.01 µM, first compound 0.1 µM): 15% | viability, T/C (second compound 0.01 µM, first compound 0.316 µM): 16.2% | viability, T/C (second compound 0.01 µM, first compound 1 µM): 19.1% | viability, T/C (second compound 0.01 µM, first compound 3.16 µM): 20.6% | viability, T/C (second compound 0.01 µM, first compound 10 µM): 15.1% | viability, T/C (second compound 0.0316 µM, first compound 0.0316 µM): 13.8% | viability, T/C (second compound 0.0316 µM, first compound 0.1 µM): 12.9% | viability, T/C (second compound 0.0316 µM, first compound 0.316 µM): 17.8% | viability, T/C (second compound 0.0316 µM, first compound 1 µM): 18.3% | viability, T/C (second compound 0.0316 µM, first compound 3.16 µM): 17.6% | viability, T/C (second compound 0.0316 µM, first compound 10 µM): 13.4% | viability, T/C (second compound 0.1 µM, first compound 0.0316 µM): 12.7% | viability, T/C (second compound 0.1 µM, first compound 0.1 µM): 13.8% | viability, T/C (second compound 0.1 µM, first compound 0.316 µM): 15% | viability, T/C (second compound 0.1 µM, first compound 1 µM): 17.8% | viability, T/C (second compound 0.1 µM, first compound 3.16 µM): 17.4% | viability, T/C (second compound 0.1 µM, first compound 10 µM): 13.3% | viability, T/C (second compound 0.316 µM, first compound 0.0316 µM): 14.5% | viability, T/C (second compound 0.316 µM, first compound 0.1 µM): 15% | viability, T/C (second compound 0.316 µM, first compound 0.316 µM): 16.6% | viability, T/C (second compound 0.316 µM, first compound 1 µM): 17.1% | viability, T/C (second compound 0.316 µM, first compound 3.16 µM): 15.8% | viability, T/C (second compound 0.316 µM, first compound 10 µM): 13.1% | viability, T/C (second compound 1 µM, first compound 0.0316 µM): 16.2% | viability, T/C (second compound 1 µM, first compound 0.1 µM): 15.3% | viability, T/C (second compound 1 µM, first compound 0.316 µM): 17.7% | viability, T/C (second compound 1 µM, first compound 1 µM): 19.8% | viability, T/C (second compound 1 µM, first compound 3.16 µM): 19.6% | viability, T/C (second compound 1 µM, first compound 10 µM): 12.4%

IC50 (compound alone, run of 09/09/2024): 494 nM [middle of 8 runs]
Compound: C#Cc1c(F)ccc2cc(O)cc(-c3ncc4c(N5CC6CCC(C5)N6)nc(OCC56CCCN5CC(F)C6)nc4c3F)c12 (stereo not drawn)
viability, T/C (compound 0.0316 µM): 91.2% [middle of 8 runs] | viability, T/C (compound 0.1 µM): 80% [middle of 8 runs] | viability, T/C (compound 0.316 µM): 56.1% [middle of 8 runs] | viability, T/C (compound 1 µM): 36.8% [middle of 8 runs] | viability, T/C (compound 3.16 µM): 19.6% [middle of 8 runs] | viability, T/C (compound 10 µM): 12.4% [middle of 8 runs]
